The results in this text go back to PubChem BioAssay AID1259407 (Chemical Carcinogenesis Research Information System (CCRIS), 2018).

The subject of this data set is CCRIS mutagenicity, Ames/micronucleus/aberration tests. As to the kind of experiment: CCRIS mutagenicity studies.
[1] abbreviates: Test System: MOUSE LYMPHOMA, Strain/Indicator: L5178Y (TK+/TK-), Metabolic Activation: RAT, LIVER, S-9, AROCLOR 1254, Method: SUSPENSION/PLATE.
Where [2] appears, read: Test System: AMES SALMONELLA TYPHIMURIUM, Strain/Indicator: TA98, Metabolic Activation: NONE, Method: STANDARD PLATE.
The mark [3] stands for this setting: Test System: AMES SALMONELLA TYPHIMURIUM, Strain/Indicator: TA100, Metabolic Activation: NONE, Method: STANDARD PLATE.

Structures are written as SMILES. The source made the active and inactive calls. No rule for the calls is given here.

Turning to `C[Si](Cl)Cl`, the mutagenic call runs as follows: (Test System: AMES SALMONELLA TYPHIMURIUM, Strain/Indicator: TA98, Metabolic Activation: HAMSTER, LIVER, S-9, AROCLOR 1254, Method: PREINCUBATION) “inactive; negative”; (Test System: AMES SALMONELLA TYPHIMURIUM, Strain/Indicator: TA98, Metabolic Activation: NONE, Method: PREINCUBATION) “inactive; negative”; (Test System: AMES SALMONELLA TYPHIMURIUM, Strain/Indicator: TA98, Metabolic Activation: RAT, LIVER, S-9, AROCLOR 1254, Method: PREINCUBATION) “inactive; negative”; (Test System: AMES SALMONELLA TYPHIMURIUM, Strain/Indicator: TA100, Metabolic Activation: HAMSTER, LIVER, S-9, AROCLOR 1254, Method: PREINCUBATION) “inactive; negative”; (Test System: AMES SALMONELLA TYPHIMURIUM, Strain/Indicator: TA100, Metabolic Activation: NONE, Method: PREINCUBATION) “inactive; negative”; (Test System: AMES SALMONELLA TYPHIMURIUM, Strain/Indicator: TA100, Metabolic Activation: RAT, LIVER, S-9, AROCLOR 1254, Method: PREINCUBATION) “inactive; negative”. For the same molecule, the mutagenic call is “inactive; negative” (Test System: AMES SALMONELLA TYPHIMURIUM, Strain/Indicator: TA1535, Metabolic Activation: HAMSTER, LIVER, S-9, AROCLOR 1254, Method: PREINCUBATION); “inactive; negative” (Test System: AMES SALMONELLA TYPHIMURIUM, Strain/Indicator: TA1535, Metabolic Activation: NONE, Method: PREINCUBATION); “inactive; negative” (Test System: AMES SALMONELLA TYPHIMURIUM, Strain/Indicator: TA1535, Metabolic Activation: RAT, LIVER, S-9, AROCLOR 1254, Method: PREINCUBATION); “inactive; negative” (Test System: AMES SALMONELLA TYPHIMURIUM, Strain/Indicator: TA1537, Metabolic Activation: HAMSTER, LIVER, S-9, AROCLOR 1254, Method: PREINCUBATION); “inactive; negative” (Test System: AMES SALMONELLA TYPHIMURIUM, Strain/Indicator: TA1537, Metabolic Activation: NONE, Method: PREINCUBATION); “inactive; negative” (Test System: AMES SALMONELLA TYPHIMURIUM, Strain/Indicator: TA1537, Metabolic Activation: RAT, LIVER, S-9, AROCLOR 1254, Method: PREINCUBATION). The mutagenic call is “inactive; negative” (Test System: AMES SALMONELLA TYPHIMURIUM, Strain/Indicator: TA1538, Metabolic Activation: HAMSTER, LIVER, S-9, AROCLOR 1254, Method: PREINCUBATION); “inactive; negative” (Test System: AMES SALMONELLA TYPHIMURIUM, Strain/Indicator: TA1538, Metabolic Activation: NONE, Method: PREINCUBATION); “inactive; negative” (Test System: AMES SALMONELLA TYPHIMURIUM, Strain/Indicator: TA1538, Metabolic Activation: RAT, LIVER, S-9, AROCLOR 1254, Method: PREINCUBATION); “inactive; negative. reevaluation of results: negative” (Test System: MOUSE LYMPHOMA, Strain/Indicator: L5178Y (TK+/TK-), Metabolic Activation: NONE, Method: SUSPENSION/PLATE); “inactive; negative. reevaluation of results: negative” under setting [1].
On to `CC(Cl)c1ccccc1` (stereo not given), for which the mutagenic call is “inactive; negative” under setting [2] and “inactive; negative” under setting [3].
Take `CCC1CCC(CCC(=O)[O-])C1.CCC1CCC(CCC(=O)[O-])CC1.[Cu+2]` (stereo not given): the mutagenic call is, setting by setting: (End Point: In vitro chromosomal aberrations, Test System: Chinese hamster ovary (CHO) cells, Metabolic Activation: None) “inactive; negative”; (End Point: In vitro chromosomal aberrations, Test System: Chinese hamster ovary (CHO) cells, Metabolic Activation: Rat, Liver, S-9, Aroclor) “inactive; negative”; (Test System: AMES SALMONELLA TYPHIMURIUM, Strain/Indicator: TA98, Metabolic Activation: HAMSTER, LIVER, S-9, AROCLOR 1254 (10%), Method: STANDARD PLATE) “inactive; negative”; under setting [2], “inactive; negative”; (Test System: AMES SALMONELLA TYPHIMURIUM, Strain/Indicator: TA98, Metabolic Activation: RAT, LIVER, S-9, AROCLOR 1254 (10%), Method: STANDARD PLATE) “inactive; negative”; (Test System: AMES SALMONELLA TYPHIMURIUM, Strain/Indicator: TA100, Metabolic Activation: HAMSTER, LIVER, S-9, AROCLOR 1254 (10%), Method: STANDARD PLATE) “inactive; negative”. Besides, the mutagenic call reads like this: under setting [3], “inactive; negative”; (Test System: AMES SALMONELLA TYPHIMURIUM, Strain/Indicator: TA100, Metabolic Activation: RAT, LIVER, S-9, AROCLOR 1254 (10%), Method: STANDARD PLATE) “inactive; negative”; (Test System: AMES SALMONELLA TYPHIMURIUM, Strain/Indicator: TA1535, Metabolic Activation: HAMSTER, LIVER, S-9, AROCLOR 1254 (10%), Method: STANDARD PLATE) “inactive; negative”; (Test System: AMES SALMONELLA TYPHIMURIUM, Strain/Indicator: TA1535, Metabolic Activation: NONE, Method: STANDARD PLATE) “inactive; negative”; (Test System: AMES SALMONELLA TYPHIMURIUM, Strain/Indicator: TA1535, Metabolic Activation: RAT, LIVER, S-9, AROCLOR 1254 (10%), Method: STANDARD PLATE) “inactive; negative”; (Test System: AMES SALMONELLA TYPHIMURIUM, Strain/Indicator: TA1537, Metabolic Activation: HAMSTER, LIVER, S-9, AROCLOR 1254 (10%), Method: STANDARD PLATE) “inactive; negative”. Moreover, the mutagenic call reads like this: (Test System: AMES SALMONELLA TYPHIMURIUM, Strain/Indicator: TA1537, Metabolic Activation: NONE, Method: STANDARD PLATE) “inactive; negative”; (Test System: AMES SALMONELLA TYPHIMURIUM, Strain/Indicator: TA1537, Metabolic Activation: RAT, LIVER, S-9, AROCLOR 1254 (10%), Method: STANDARD PLATE) “inactive; negative”; (Test System: AMES SALMONELLA TYPHIMURIUM, Strain/Indicator: TA1538, Metabolic Activation: HAMSTER, LIVER, S-9, AROCLOR 1254 (10%), Method: STANDARD PLATE) “inactive; negative”; (Test System: AMES SALMONELLA TYPHIMURIUM, Strain/Indicator: TA1538, Metabolic Activation: NONE, Method: STANDARD PLATE) “inactive; negative”; (Test System: AMES SALMONELLA TYPHIMURIUM, Strain/Indicator: TA1538, Metabolic Activation: RAT, LIVER, S-9, AROCLOR 1254 (10%), Method: STANDARD PLATE) “inactive; negative”; under setting [1], “active; positive. reevaluation of results: positive”. Moreover, the mutagenic call runs as follows: (Test System: Mouse lymphoma, Strain/Indicator: L5178Y TK+/-, Metabolic Activation: Mammalian, liver, S-9) “active; positive”; (Test System: Mouse lymphoma, Strain/Indicator: L5178Y TK+/-, Metabolic Activation: None) “inactive; negative”.
For `O=C(c1ccccc1)C1OC1c1ccc([N+](=O)[O-])cc1` (stereo not given), the mutagenic call under setting [2] was “inactive; negative”; the mutagenic call (Test System: AMES SALMONELLA TYPHIMURIUM, Strain/Indicator: TA98, Metabolic Activation: RAT, LIVER, S-9, AROCLOR 1254, Method: STANDARD PLATE) is “inactive; negative”; the mutagenic call under setting [3] was “inactive; negative”; the mutagenic call (Test System: AMES SALMONELLA TYPHIMURIUM, Strain/Indicator: TA100, Metabolic Activation: RAT, LIVER, S-9, AROCLOR 1254, Method: STANDARD PLATE) is “inactive; negative”.
With `Oc1cc2cc3c(ccc4ccccc43)cc2c2ccccc12`, the mutagenic call (Test System: CHINESE HAMSTER V-79, Strain/Indicator: V-79/8-AZAGUANINE, Metabolic Activation: NONE, Method: STANDARD PLATE) is “active; positive”.
Consider `COc1cc(O)cc2c1cc([N+](=O)[O-])c1c(C(=O)O)cc3c(c12)OCO3`, for which, where the note is “Test System: AMES SALMONELLA TYPHIMURIUM, Strain/Indicator: TM677/8-AZAGUANINE, Metabolic Activation: NONE, Method: SUSPENSION/PLATE”, the mutagenic call is “inactive; negative”.
